{"source": "patent US20210007985A1", "about": "“LIPOSOMAL ANTI-INFECTIVE FORMULATIONS TO INHIBIT NON-TUBERCULOUS MYCOBACTERIA (NTM) MICROAGGREGATE FORMATION AND ESTABLISHMENT OF NTM BIOFILM” (ARADIGM CORPORATION, priority 2017, published 2021)", "key": {"M. avium 109": {"test_system": "M. avium 109", "assay": "Activity against M. avium 109 in human macrophage (THP-1) model", "format": "cell-based", "settings": "M. avium 109 in THP-1 macrophages; 20 μg/mL for 4 days"}, "M. avium microaggregates": {"test_system": "M. avium microaggregates", "assay": "Electron micrographs of M. avium microaggregates on epithelial cell monolayer (FIG. 1)", "format": "cell-based", "settings": "300 μg/mL; treatment added at t=0 h; growth over 24 h", "text": "FIG. 1 consists of FIGS. 1A, 1B, 1C, 1D and 1E."}, "[1]": {"test_system": "M. avium (MAC Strain 104)", "assay": "M. avium mouse lung infection model over 6 weeks", "format": "in vivo, mice", "settings": "1 mg/kg; 3 and 6 weeks"}, "M. avium": {"test_system": "M. avium", "settings": "Inderlied et al, 1989; cited from earlier work"}, "M. avium MAC 104": {"test_system": "M. avium MAC 104", "assay": "Antimicrobial susceptibility (MIC, microdilution) of MAC 104 before and after treatment", "format": "cell-based", "settings": "Mycobacterium avium, MAC104, read-out: MIC of M. avium to ciprofloxacin, before and after treatment"}, "M. avium 101": {"test_system": "M. avium 101", "assay": "Activity against M. avium 101 in human macrophage (THP-1) model", "format": "cell-based"}, "M. avium biofilm": {"test_system": "M. avium biofilm", "settings": "incubation of M. avium with antibiotic; McNabe et al. 2012; cited from earlier work"}}, "data": [{"compound": "O=C(O)c1cn(C2CC2)c2cc(N3CCNCC3)c(F)cc2c1=O", "note": "[Ciprofloxacin]", "values": [{"measurement": "CFU Day 4", "setting": "M. avium 109", "result": "1.1 ± 0.4 × 10^4 CFU"}, {"measurement": "microaggregate formation in electron micrographs", "setting": "M. avium microaggregates", "result": "much less microaggregate formation than control"}, {"measurement": "statistical effect on lung CFU", "setting": "[1]", "result": "did not have a statistically significant effect"}, {"measurement": "minimum inhibitory concentration (MIC)", "setting": "M. avium", "result": 5, "unit": "µg/mL"}, {"measurement": "MIC", "setting": "M. avium MAC 104", "result": 8, "unit": "µg/mL"}, {"measurement": "statistical effect on CFU in macrophages", "setting": "M. avium 101; M. avium 101 and 109, 20 μg/ml, Day 4 vs Day 0", "result": "did not have a statistically significant effect"}, {"measurement": "CFU Day 0", "setting": "M. avium 101; M. avium 101 in THP-1 macrophages, initial infecting load before treatment at 20 μg/mL", "result": "7 ± 0.2 × 10^4 CFU"}]}, {"compound": "CC1(C)S[C@@H]2[C@H](NC(=O)[C@H](N)c3ccccc3)C(=O)N2[C@H]1C(=O)O", "note": "[ampicillin]", "values": [{"measurement": "effect on M. avium biofilm formation", "setting": "M. avium biofilm", "result": "no effect on biofilm"}]}, {"compound": "[H]/N=C(/N)N[C@H]1[C@H](O)[C@@H](O)[C@H](O[C@@H]2O[C@@H](C)[C@](O)(C=O)[C@H]2O[C@@H]2O[C@@H](CO)[C@H](O)[C@@H](O)[C@@H]2NC)[C@@H](N/C(N)=N\\[H])[C@@H]1O", "note": "[streptomycin]", "values": [{"measurement": "effect on M. avium biofilm formation", "setting": "M. avium biofilm", "result": "an increase, not decrease, in the biofilm formation"}]}, {"compound": "TMP/SMX", "values": [{"measurement": "effect on M. avium biofilm formation", "setting": "M. avium biofilm", "result": "no effect on biofilm"}]}]}
